Assays:
3T3-L1 adipocytes = experiment: [3H]-2-deoxyglucose uptake in 3T3-L1 adipocytes, basal and insulin-stimulated; type: cell-based; details: for effect on insulin-stimulated glucose uptake relative to indinavir: 50 μM (FIG. 1B); for effect on basal glucose uptake: basal conditions
Description: FIG. 1A. […] Results from three experiments were normalized to the value obtained from insulin-stimulated control cells and are shown as the mean±S.E. (n=6). FIG. 1B. […] Results were normalized to the value obtained from insulin-stimulated control cells and are shown as the mean±S.E. (n=3). 3T3-L1 fibroblasts obtained from the American Type Culture Collection were grown to confluence and 48 h later subjected to the differentiation protocol described previously (Tordjman et al. 1989). Mature 3T3-L1 adipocytes were maintained in DMEM supplemented with 10% fetal bovine serum and used 10 to 15 d post-differentiation. 3T3-L1 adipocytes grown in 3.5 cm dishes were serum-starved for at least 3 hours and then washed three times with Krebs-Ringer phosphate buffer. […] Stock solutions of indinavir and amprenavir were made in water. Ritonavir was dissolved in ethanol.

Glut4 [1] = target: T1, Glut4 (Rattus norvegicus, UniProt P19357); experiment: [3H]-2-deoxyglucose uptake in Xenopus oocytes expressing Glut4; type: cell-based; details: for inhibition at 50 µM: 50 μM (FIG. 3B)
T1 construct: expressed in transfected cells; host or cells: Xenopus laevis oocytes, microinjected with in vitro transcribed mRNA
T1 sequence (P19357 1-509): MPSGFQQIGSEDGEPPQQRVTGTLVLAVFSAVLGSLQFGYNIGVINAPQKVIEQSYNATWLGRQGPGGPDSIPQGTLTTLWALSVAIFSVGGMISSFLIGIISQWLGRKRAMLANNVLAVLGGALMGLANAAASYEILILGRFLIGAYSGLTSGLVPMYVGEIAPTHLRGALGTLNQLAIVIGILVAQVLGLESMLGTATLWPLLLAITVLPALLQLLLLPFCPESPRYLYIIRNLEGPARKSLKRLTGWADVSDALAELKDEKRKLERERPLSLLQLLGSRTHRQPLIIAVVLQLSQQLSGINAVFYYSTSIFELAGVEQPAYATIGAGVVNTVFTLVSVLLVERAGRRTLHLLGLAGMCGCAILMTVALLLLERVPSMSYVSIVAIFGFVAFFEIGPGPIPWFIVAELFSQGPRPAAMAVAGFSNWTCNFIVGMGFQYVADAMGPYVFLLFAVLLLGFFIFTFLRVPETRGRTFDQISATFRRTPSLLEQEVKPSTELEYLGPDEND
Description: (§1) FIG. 3A. Xenopus oocytes heterologously expressing either Glut1 or Glut4 isoforms were used for [^3H]-2-deoxyglucose uptake measurement in Barth's Saline at 22° C. for 30 min. […] Plotted are the mean uptake from 15-20 oocytes±S.E. [* indicates p<0.01 compared with control (ANOVA with Fischer's PLSD posthoc analysis).]
(§2) FIG. 3B. Glucose uptake in X. laevis oocytes as described above. […] The data are normalized to the uptake from the control oocytes which were not exposed to protease inhibitor. [* indicates p<0.0001 compared with control (ANOVA with Fischer's PLSD posthoc analysis).]
(§3) Xenopus laevis oocytes were prepared and injected as described previously (Keller et al., 1989) with 50 ng of either Glut1 or Glut4 mRNA synthesized in vitro (Megascript RNA synthesis kit, Ambion). After a three day incubation in Barth=s saline containing albumin at 18° C., groups of 15-20 oocytes were washed and [^3H]-2-deoxyglucose (50 μM) uptake measurements were performed in Barth's saline at 22° C. for 30 minutes.

Glut1 [2] = target: T2, Glut1 (Homo sapiens, UniProt P11166); experiment: [3H]-2-deoxyglucose uptake in Xenopus oocytes expressing Glut1; type: cell-based; details: 22° C., 30 min
T2 construct: expressed in transfected cells; host or cells: Xenopus laevis oocytes, microinjected with in vitro transcribed mRNA
T2 sequence (P11166 1-492): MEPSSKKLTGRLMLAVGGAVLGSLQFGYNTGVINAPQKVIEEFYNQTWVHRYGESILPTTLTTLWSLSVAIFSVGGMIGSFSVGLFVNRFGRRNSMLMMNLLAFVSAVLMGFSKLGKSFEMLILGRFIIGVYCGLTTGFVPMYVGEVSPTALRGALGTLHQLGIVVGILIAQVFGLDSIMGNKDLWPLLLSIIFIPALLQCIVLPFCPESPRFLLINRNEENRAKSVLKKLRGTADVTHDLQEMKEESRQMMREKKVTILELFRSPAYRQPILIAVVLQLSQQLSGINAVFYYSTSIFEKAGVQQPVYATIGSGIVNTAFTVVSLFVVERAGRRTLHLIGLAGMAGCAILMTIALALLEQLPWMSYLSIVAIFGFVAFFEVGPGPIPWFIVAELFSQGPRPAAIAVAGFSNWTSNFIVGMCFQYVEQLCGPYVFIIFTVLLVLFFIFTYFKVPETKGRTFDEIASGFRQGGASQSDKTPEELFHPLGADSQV
Description: as §1, §2, §3

[3] = Glucose tolerance after acute indinavir administration in rats; type: in vivo, male Wistar rats
Excerpt: (§4) Male Wistar rats (Charles River Corp) weighing between 250-400 g were used for all experiments described below. Glucose measurements were made using a Glucometer Elite Glucometer (Bayer Corporation, Diagnostics Division, Tarrytown, N.Y.). […] Jugular vein and carotid artery catheters were fabricated using microrenathane tubing (Braintree Scientific) for venous catheters and PE50 tubing (Becton Dickenson) for arterial catheters. Catheters were inserted surgically under methohexital (Jones Pharma Inc, St. Louis, Mo.) anesthesia. Humulin R insulin (Eli Lilly, Indianapolis, Ind.) was used where indicated.

Glut4 [4] = experiment: Immunoblot of Glut4 content in PM and LDM fractions of 3T3-L1 adipocytes (translocation); details: indinavir-treated cells, 100 μM for 4 h
[5] = Euglycemic hyperinsulinemic clamp (peripheral insulin sensitivity) in rats; type: in vivo, male Wistar rats; details: for reduction in peripheral insulin sensitivity (average GIR) compared with controls: infusion started 30 min before clamp, p<0.05
Description: Jugular vein and carotid artery catheters were inserted, at least 4 days prior to each experiment, into 200-400 gm male Wistar rats under methohexital anesthesia. Following an overnight fast, rats were infused with insulin (40 mU/kg/min) and 50% dextrose through the venous catheter. Blood was sampled every 5-10 minutes through the arterial catheter and serum glucose concentrations were determined. The glucose infusion rate (GIR) space was adjusted to maintain glucose levels of 100-110 mg/dl.
Male Wistar rats weighing 200-300 gm were catheterized as described in FIG. 5. […] After 30 minutes, insulin (40 mU/kg/min) and 50% dextrose were added to the intravenous infusion. Blood was sampled through the arterial line every 5 min and the dextrose infusion rate was adjusted to maintain plasma glucose levels between 105-115 mg/dL. GIR represents the mean glucose infusion rate during the final 30 minutes of each 2 hour clamp experiment. Results represent the mean±SEM from 3-5 rats per group. [* indicates […]]
as §4
Peripheral insulin sensitivity in rats was assessed by the euglycemic hyperinsulinemic clamp technique. Venous and arterial catheters were surgically inserted into the animals under anesthesia. At least 4 d prior to the initiation of experimental treatments catheters were inserted into both jugular vein and carotid artery locations. Following a 12 hour fast, animals were infused with insulin (40 mU/kg/min) and 50% dextrose in water through the venous catheter. Blood was sampled every 5-10 min through the arterial catheter for serum glucose determinations. The rate of glucose infusion (Glucose Infusion Rate, GIR) was adjusted as necessary to maintain serum glucose at 100-110 mg/dl (FIGS. 5A, 5B, 5C).
Insulin sensitivity was assessed by the average glucose infusion rate required to maintain euglycemia after equilibrium had been established.

Glut1 [6] = experiment: Immunoblot of Glut1 content in PM and LDM fractions of 3T3-L1 adipocytes (translocation); details: indinavir-treated cells, 100 μM for 4 h
[7] = system: insulin receptor (IR), IRS-1 and Akt phosphorylation; experiment: Immunoblot of insulin signaling (IR, IRS-1, Akt phosphorylation) in 3T3-L1 adipocytes; type: cell-based; details: 100 μM for 4 h, 1 μM insulin 20 min
Description: Cells were further incubated for 20 min with or without 1 μM insulin, and subcellular fractions were subsequently isolate. Plasma membrane (PM), low density microsomal (LDM), and cytosolic (CYT) fractions were subjected to immunoblot analysis using anti-phosphotyrosine antibodies.
Whole cell lysates from 3T3-L1 adipocytes from samples treated as described above were subjected to immunoblot analysis using anti-phospo Akt antibodies, which recognize Akt phosphorylated on threonine 308 and serine 473.

## CC(C)CN(C[C@@H](O)[C@H](Cc1ccccc1)NC(=O)O[C@H]1CCOC1)S(=O)(=O)c1ccc(N)cc1 [amprenavir]
3T3-L1 adipocytes
  effect on insulin-stimulated glucose uptake relative to indinavir: comparable to that of indinavir
Glut4 [1]
  inhibition at 50 µM: 54%

## CC(C)(C)NC(=O)[C@@H]1CN(Cc2cccnc2)CCN1C[C@@H](O)C[C@@H](Cc1ccccc1)C(=O)N[C@H]1c2ccccc2C[C@H]1O [indinavir]
Glut1 [2]
  effect on Glut1 activity in Xenopus oocytes: no effect
[3]; 10 mg/kg i.p. together with dextrose 2 g/kg i.p., control 195±15, p<0.05
  blood glucose concentration at t=30 min: 241 ± 11 mg/dL
[3]; 15 mg/kg i.v. 5 min prior to glucose 2 gm/kg i.p., control 311±30
  peak plasma glucose concentration: 407 ± 25 mg/dL
3T3-L1 adipocytes; Mus musculus, 3T3-L1, 10 μM, added 6 min prior to assay, 1 μM insulin, p<0.0001, read-out: inhibition of insulin-stimulated glucose uptake
  inhibition at 10 µM: 26%
3T3-L1 adipocytes; Mus musculus, 3T3-L1, 100 μM, added 6 min prior to assay, 1 μM insulin for 20 min, read-out: inhibition of insulin-stimulated glucose uptake
  inhibition at 100 µM: 63%
3T3-L1 adipocytes; 20 μM
  effect on basal glucose uptake: modest increase
3T3-L1 adipocytes; 10-100 μM
  effect on basal glucose uptake: largely unaffected
3T3-L1 adipocytes; data not shown
  extent of inhibition of transport activity when added before or after 20 min of insulin stimulation: did not change
  time to restoration of normal insulin-responsive glucose uptake after removal of drug: ≤ 30 min
Glut4 [4]
  increase with insulin of Glut4 content in plasma membrane (PM) fraction: 38%
[5]; 0.3 mg/kg/min
  reduction in peripheral insulin sensitivity (average GIR) compared with controls: 15%
[5]; 0.5 mg/kg/min
  reduction in peripheral insulin sensitivity (average GIR) compared with controls: 40%
[5]; after stopping indinavir infusion
  time to restoration of insulin sensitivity to baseline after stopping infusion: ≤ 4 h
[5]; i.v. infusion 0.3 mg/kg/min
  decrease in GIR required to maintain euglycemia: 20%
[5]; i.v. infusion 0.5 mg/kg/min, within 90 minutes after start
  decrease in GIR required to maintain euglycemia: 50%
Glut1 [6]
  increase with insulin of Glut1 content in plasma membrane (PM) fraction: 63%
Glut4 [1]; 100 μM (maximum dose tested)
  inhibition at 100 µM: 45%
[7]
  IR autophosphorylation and tyrosine phosphorylation of IRS-1: occurred normally
  effect on insulin-stimulated phosphorylation of Akt on threonine 308 or serine 473: no effect

## CC(C)c1nc(CN(C)C(=O)N[C@H](C(=O)N[C@@H](Cc2ccccc2)C[C@H](O)[C@H](Cc2ccccc2)NC(=O)OCc2cncs2)C(C)C)cs1 [ritonavir]
3T3-L1 adipocytes
  effect on insulin-stimulated glucose uptake relative to indinavir: comparable to that of indinavir
Glut4 [1]
  inhibition at 50 µM: 42%

From patent US6440659B1, “Inhibitors of retroviral protease as inducers of reversible insulin resistance in vitro and in vivo” (Washington University, priority 2000, dated 2002)
